This assay concerns Fusarium graminearum. Briefly: microbe, parasite or virus in culture. The class given is cell-based.

Each structure is given as a SMILES string. ≈ marks a conversion by molar mass, not a printed value.

For the compound `CC1(C)CCC(Cc2ccc(Cl)cc2)C1(O)Cn1cncn1` (stereo not drawn) [Metconazole], the ED50 is 0.113 µg/mL (≈ 0.353 µM) (F.g carbendazim-resistant strains) and 0.115 µg/mL (≈ 0.36 µM) (F.g phenamacril-resistant strains). The inhibition at 0.125 µg/mL (Fusarium graminearum, read-out: inhibitory effect on hyphal growth) was above 50%.

Values taken from US9949479B2 (priority 2015, dated 2018).
